The values that follow come from patent US20180369186A1, “METHOD FOR MODULATING AUTOPHAGY AND APPLICATIONS THEREOF” (JAWAHARLAL NEHRU CENTRE FOR ADVANCED SCIENTIFIC RESEARCH, priority 2015, published 2018).

One series deals with DAergic neurons in SNpc. The series can be described thus: MPTP mouse model: LC3 and A11 puncta in DAergic neurons of SNpc. Type of series: in vivo. Here is the method: The sequential immunolabeling procedure is used to co-label the TH and LC3 and/or A11. First, the midbrain sections are equilibrated with 0.1 M PBS (pH 7.4) for 10 min and then incubated with buffered bovine serum albumin (3%) for 4 h to block non-specific epitopes. Then, the sections are incubated in rabbit anti-LC3 antibody (1:1000) and/or anti-oligomer antibody (A11, 1:1000) for 72 h at 4° C. After subsequent washes, the sections are incubated in corresponding fluorescent secondary antibody (1:200) at 4° C., overnight.
Co-labeling with TH is performed on the same sections using rabbit anti-TH antibody (1:500), followed by secondary labeling. PBST (0.01 M, pH 7.4) is used as both working and washing buffer. Sections are then mounted using Vectashield hardset mounting medium.

Series [1] concerns HeLa cells (autophagosomes and autolysosomes). In words: Tandem RFP-GFP-LC3B (traffic light) assay in HeLa cells. Type of series: cell-based, human. On the procedure:
Transfection is done on a 60 mm dish with HeLa cells at 60-70% confluency. Cells were transfected with tandem RFP-GFP-MAP1LC3B construct (Addgene plasmid #21074) using 5 μl of Lipofectamine 2000 (11668-019, Invitrogen) and 2.5 μg of DNA (2:1 ratio) diluted in 100 μl of OPTI-MEM (31985-070, Invitrogen) separately. 72 hours after transfection cells are either left untreated or treatment with various concentrations of Bay11-7082 ZPCK is done for 2 hours. Starvation is induced by treating cells with Earle's balanced salt solution (EBBS). After treatment, cells are fixed in 4% paraformaldehyde and permeabilized using 0.25% Triton X-100, The coverslip is mounted with […] antifade reagent (H-1000, Vector laboratories). Imaging for HeLa cells is carried out using Delta vision microscope (Olympus 60×/1.4, Plan ApoN, excitation and emission filter Cy5, FITC and TRITC, polychroic Quad).
For tandem RFP-EGFP-LC3 assay, sub-confluent cells are seeded in 60 mm dishes, transfected with ptf LC3 construct and allowed to express for 24 h. Later, cells are trypsinized, reseeded (10^5 cells) and allowed to attach on cover slips in a 12 well plate.
For mammalian cell microscopy, after 2 h of treatment, coverslips are fixed using 4% paraformaldehyde (PFA) (Sigma) and permeabilized using Triton X-100 (0.2%, HiMedia). Coverslips are mounted using antifade, Vectashield (Vector laboratories). For antibody staining, coverslips are blocked in 5% BSA for 1 h, incubated in primary antibody overnight and subsequent probing with fluorescent conjugated antibody. Coverslips are mounted using antifade, Vectashield (Vector laboratories).
Images are acquired using DeltaVisionElitewidefield microscope (API, GE) with following filters: DAPI (390/18 and 435/48), FITC (490/20 and 529/38), TRITC (542/27 and 594/45) and Cy5 (632/22 and 676/34). Images are processed using DV SoftWoRX software. Autophagosome (yellow) and autolysosome (red) are counted using Cell Counter plug-in in ImageJ software (NIH) and graphically represented as fold difference versus untreated (FIG. 3E).
Sub-confluent HeLa and/or SH-SY5Y cells are seeded into 60 mm cell culture dishes, then transfected with ptf LC3 construct and/or siRNA and allowed to express for 48 h. Cells are trypsinized, seeded again on poly-D-lysine coated cover slips in a 12 or 24 well plates and allowed to attach. After appropriate treatments, the coverslips containing cells are processed for imaging. For immunofluorescent antibody staining, the cover slips are incubated in primary antibody at 4° C. for overnight followed by secondary antibody incubation at room temperature.
For imaging the mammalian cells, after appropriate treatments, coverslips containing cells are fixed using 4% paraformaldehyde (PFA) (Sigma) and then permeabilized using Triton X-100 (0.2%, HiMedia). On slide, coverslips are mounted using antifade, Vectashield mounting medium (Vector laboratories). For antibody staining, coverslips are blocked using 5% BSA for 1 h at room temperature, then incubated with primary antibody at 4° C., overnight and then subsequently probed with corresponding fluorescent dye conjugated secondary antibody.

[2] abbreviates: 5 mg/kg, co-administered with MPTP.
[3] abbreviates: HeLa, 2 h, 2.5 μM Bay11, 25 μM ZPCK.
[4] abbreviates: HeLa, ERRα Flag transfected 48 h, 5 μM, 2 h.

Take `O=C1Nc2cc(Br)ccc2/C1=C1/Nc2ccccc2/C1=N\O` [6-Bio, (2′Z,3′E)-6-Bromoindirubin-3′-oxime]: the “LC3B puncta per neuron, MPTP vs MPTP+Co” value in the series with DAergic neurons in SNpc (5 mg/kg, co administered with MPTP) is ~2,5 fold. Further, in the series with DAergic neurons in SNpc (setting [2]), the “reduction in A11 positive toxic aggregates, MPTP vs MPTP+Co” value was approximately 7 fold. For the same compound, the “p-GSK3B signals in DAergic neurons” value with DAergic neurons in SNpc (6-Bio only and MPTP+Co cohorts) is listed as “Reduced p-GSK3B signals”. The “fusion between autophagosomes and lysosomes at 16° C.” value in series [1] (HeLa, 16° C. (endocytosis reduced), control vs treated) is approximately 8 fold. Moreover, the “fusion between autophagosomes and lysosomes at 37° C.” value in series [1] (HeLa, 37° C., control vs treated) was approximately 10 fold. For the same compound, in series [1] (shRNA GSK3B silenced cells), the “autolysosomes in GSK3B silenced cells vs only treated cells” value was “significantly reduced”.
As for `Cc1ccc(S(=O)(=O)/C=C/C#N)cc1` [Bay11, 3-[(4-methylphenyl)sulfonyl]-(2E)-propenenitrile], in series [1] (setting [3]), the “number of autolysosomes (mRFP+/GFP− puncta)” value is recorded as “decreased” and the “number of autophagosomes (mRFP+/GFP+ puncta)” value is listed as “decreased the number of autophagosomes”. Moreover, in series [1] (HeLa, with Bafilomycin A1 (400 nM)), the “step of action relative to Bafilomycin A1 (BFA)” value is on record as “step prior to BFA action”.
With `COc1cc(C=C(C#N)C(=O)Nc2nnc(C(F)(F)F)s2)ccc1OCc1ccc(C(F)(F)F)cc1C(F)(F)F` [XCT 790, 3-[4-(2,4-Bis-trifluoromethylbenzyloxy)-3-methoxyphenyl]-2-cyano-N-(5-trifluoromethyl-1,3,4-thiadiazol-2-yl)acrylamide], the “LC3 puncta per neuron, compound only vs placebo/vehicle” value with DAergic neurons in SNpc (5 mg/kg of body weight, compound only cohort) is approximately 3 fold. For the same compound, the “aggregates in compound only cohort vs vehicle” value with DAergic neurons in SNpc (5 mg/kg, XCT 790 only) is “comparable to that of vehicle cohort”. In the series with DAergic neurons in SNpc (setting [2]), the “LC3 puncta per cell, vehicle vs MPTP+Co” value is approximately 3 fold and the “reduction in A11 positive toxic aggregates, MPTP vs MPTP+Co” value was approximately 6 fold. In addition, in series [1] (HeLa, 5 μM, 2 h), the “autolysosome numbers, fold vs control” value is recorded as approximately 2 fold and the “autophagosomes, fold vs control” value is on record as approximately 5 fold. In addition, in series [1] (setting [4]), the “less autolysosomes in ERRα over expressed cells, vs untreated” value is reported as approximately 2 fold and the “more autophagosomes in ERRα over expressed cells, vs untreated” value is recorded as approximately 2 fold.
